Reference: PubChem BioAssay (NCI)
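Values below derive from 48-hour exposures of cells grown in 96-well plates, with endpoints linearly interpolated between the two concentrations bracketing the appropriate inhibition level. GI50 marks 50% less growth. The concentration for full growth arrest is given as TGI.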

Legend:
Assay in all cases: growth of human tumour cells (NCI), 48 h
[1] = system: MDA-MB-435
[2] = system: SK-OV-3 ovarian
[3] = system: HL-60(TB) leukemia
[4] = system: MALME-3M melanoma
[5] = system: OVCAR-3 ovarian
[6] = system: TK-10 renal
[7] = system: U251 CNS
[8] = system: COLO 205 colon
[9] = system: MOLT-4 leukemia
[10] = system: PC-3 prostate
[11] = system: RPMI-8226 leukemia
[12] = system: RXF 393 renal
[13] = system: BT-549 breast
[14] = system: SK-MEL-5 melanoma
[15] = system: MCF7 breast
[16] = system: HCC-2998 colon
[17] = system: UO-31 renal
[18] = system: NCI-H23 lung
[19] = system: A498 renal
[20] = system: A549 NSCLC
[21] = system: SF-539 CNS
[22] = system: NCI-H460 lung
[23] = system: LOX IMVI melanoma
[24] = system: UACC-257 melanoma
[25] = system: OVCAR-4 ovarian
[26] = system: KM12 colon
[27] = system: OVCAR-8 ovarian
[28] = system: HOP-92 NSCLC
[29] = system: HCT-15 colon
[30] = system: SR leukemia
[31] = system: MDA-MB-231 breast
[32] = system: NCI-H522 lung
[33] = system: 786-0 renal
[34] = system: HS 578T breast
[35] = system: SF-295 CNS
[36] = system: SF-268 CNS
[37] = system: ACHN renal
[38] = system: HT29 colon
[39] = system: CAKI-1 renal
[40] = system: K-562 leukemia
[41] = system: SK-MEL-2 melanoma
[42] = system: SW-620 colon
[43] = system: IGROV1 ovarian
[44] = system: HOP-62 NSCLC
[45] = system: SNB-19 CNS
[46] = system: M14 melanoma
[47] = system: DU-145 prostate
[48] = system: OVCAR-5 ovarian
[49] = system: T-47D breast
[50] = system: HCT-116 colon
[51] = system: SN12C renal
[52] = system: SK-MEL-28 melanoma
[53] = system: NCI-H226 lung
[54] = system: CCRF-CEM leukemia
[55] = system: UACC-62 melanoma
[56] = system: SNB-75 CNS
[57] = system: MDA-MB-468 breast
[58] = system: EKVX NSCLC

`O=C(c1ccc(Cl)cc1)C1[C@H](c2ccccc2Br)[C@@H](c2ccccc2)NC12C(=O)Nc1ccccc12` (stereo partly specified) was tested. Which GI50 [1] did it give?
Its GI50 is 2.58 µM.

And the TGI [1]?
Its TGI is 10.8 µM.

What about the GI50 [2] of the same molecule?
The GI50 was 3.87 µM.

And the TGI [2]?
Its TGI is 37 µM.

And the GI50 [3]?
Its GI50 is 1.92 µM.

What about the TGI [3] of the same molecule?
The TGI was 19.1 µM.

And the GI50 [4]?
Its GI50 is 6.46 µM.

What about the TGI [4] of the same molecule?
Its TGI is 14.5 µM.

What about the GI50 [5] of the same molecule?
Its GI50 is 2.39 µM.

What about the TGI [5] of the same molecule?
Its TGI is 14 µM.

What about the GI50 [6] of the same molecule?
The GI50 was 9.48 µM.

What about the TGI [6] of the same molecule?
Its TGI is 40.7 µM.

What about the GI50 [7] of the same molecule?
The GI50 was 3.16 µM.

And the TGI [7]?
Its TGI is 16 µM.

What about the GI50 [8] of the same molecule?
The GI50 was 7.71 µM.

What about the TGI [8] of the same molecule?
Its TGI is 15.6 µM.

And the GI50 [9]?
Its GI50 is 2.06 µM.

And the TGI [9]?
The TGI was 18.5 µM.

What about the GI50 [10] of the same molecule?
The GI50 was 2.03 µM.

And the TGI [10]?
The TGI was 18.6 µM.

What about the GI50 [11] of the same molecule?
The GI50 was 5.43 µM.

What about the TGI [11] of the same molecule?
The TGI was 32.6 µM.

And the GI50 [12]?
Its GI50 is 1.77 µM.

What about the TGI [12] of the same molecule?
Its TGI is 7.57 µM.

What about the GI50 [13] of the same molecule?
Its GI50 is 2.4 µM.

And the TGI [13]?
Its TGI is 10.5 µM.

And the GI50 [14]?
The GI50 was 2.42 µM.

What about the TGI [14] of the same molecule?
The TGI was 9.07 µM.

What about the GI50 [15] of the same molecule?
Its GI50 is 1.81 µM.

And the TGI [15]?
Its TGI is over 56 µM.

What about the GI50 [16] of the same molecule?
Its GI50 is 6.32 µM.

What about the TGI [16] of the same molecule?
The TGI was 17.8 µM.

And the GI50 [17]?
The GI50 was 2.49 µM.

What about the TGI [17] of the same molecule?
The TGI was 29.3 µM.

What about the GI50 [18] of the same molecule?
The GI50 was 5.78 µM.

And the TGI [18]?
The TGI was 17.3 µM.

What about the GI50 [19] of the same molecule?
Its GI50 is 8.75 µM.

And the TGI [19]?
The TGI was 21.6 µM.

What about the GI50 [20] of the same molecule?
Its GI50 is 2.71 µM.

What about the TGI [20] of the same molecule?
The TGI was 25 µM.

And the GI50 [21]?
The GI50 was 7.14 µM.

And the TGI [21]?
Its TGI is 15.7 µM.

And the GI50 [22]?
The GI50 was 2.3 µM.

And the TGI [22]?
Its TGI is 11.2 µM.

And the GI50 [23]?
Its GI50 is 1.99 µM.

And the TGI [23]?
Its TGI is 8.86 µM.

And the GI50 [24]?
The GI50 was 4.84 µM.

And the TGI [24]?
Its TGI is 20.7 µM.

What about the GI50 [25] of the same molecule?
The GI50 was 7.11 µM.

What about the TGI [25] of the same molecule?
Its TGI is over 56 µM.

And the GI50 [26]?
The GI50 was 7.5 µM.

What about the TGI [26] of the same molecule?
The TGI was 25.2 µM.

And the GI50 [27]?
The GI50 was 6.72 µM.

And the TGI [27]?
Its TGI is 19.9 µM.

And the GI50 [28]?
The GI50 was 2.06 µM.

And the TGI [28]?
The TGI was 14.5 µM.

What about the GI50 [29] of the same molecule?
Its GI50 is 4.03 µM.

And the TGI [29]?
Its TGI is over 56 µM.

What about the GI50 [30] of the same molecule?
The GI50 was 2 µM.

What about the TGI [30] of the same molecule?
Its TGI is 14 µM.

And the GI50 [31]?
Its GI50 is 1.72 µM.

What about the TGI [31] of the same molecule?
Its TGI is 7.13 µM.

What about the GI50 [32] of the same molecule?
Its GI50 is 1.3 µM.

What about the TGI [32] of the same molecule?
The TGI was 5.72 µM.

What about the GI50 [33] of the same molecule?
The GI50 was 7.3 µM.

What about the TGI [33] of the same molecule?
Its TGI is 21.9 µM.

What about the GI50 [34] of the same molecule?
Its GI50 is 2.51 µM.

And the TGI [34]?
Its TGI is 15.6 µM.

And the GI50 [35]?
The GI50 was 3.79 µM.

And the TGI [35]?
The TGI was 15.2 µM.

What about the GI50 [36] of the same molecule?
Its GI50 is 2.92 µM.

What about the TGI [36] of the same molecule?
The TGI was 40.2 µM.

And the GI50 [37]?
The GI50 was 6.01 µM.

And the TGI [37]?
Its TGI is 44.4 µM.

And the GI50 [38]?
The GI50 was 2.46 µM.

And the TGI [38]?
Its TGI is 9.82 µM.

And the GI50 [39]?
Its GI50 is 1.67 µM.

And the TGI [39]?
The TGI was over 56 µM.

What about the GI50 [40] of the same molecule?
The GI50 was 2.04 µM.

What about the TGI [40] of the same molecule?
The TGI was 28.3 µM.

And the GI50 [41]?
The GI50 was 4.44 µM.

And the TGI [41]?
The TGI was 11.9 µM.

And the GI50 [42]?
Its GI50 is 3.43 µM.

And the TGI [42]?
Its TGI is 33.9 µM.

What about the GI50 [43] of the same molecule?
The GI50 was 5.92 µM.

And the TGI [43]?
The TGI was 26.1 µM.

What about the GI50 [44] of the same molecule?
Its GI50 is 6.54 µM.

And the TGI [44]?
The TGI was 16.5 µM.

What about the GI50 [45] of the same molecule?
The GI50 was 10.8 µM.

And the TGI [45]?
Its TGI is over 56 µM.

What about the GI50 [46] of the same molecule?
The GI50 was 4.86 µM.

What about the TGI [46] of the same molecule?
Its TGI is 13.7 µM.

And the GI50 [47]?
Its GI50 is 2.66 µM.

What about the TGI [47] of the same molecule?
The TGI was 16.4 µM.

And the GI50 [48]?
The GI50 was 6.34 µM.

And the TGI [48]?
The TGI was 29.7 µM.

And the GI50 [49]?
The GI50 was 3.46 µM.

And the TGI [49]?
Its TGI is 49 µM.

What about the GI50 [50] of the same molecule?
Its GI50 is 2.15 µM.

And the TGI [50]?
The TGI was 9.06 µM.

What about the GI50 [51] of the same molecule?
Its GI50 is 2.74 µM.

What about the TGI [51] of the same molecule?
The TGI was 10 µM.

What about the GI50 [52] of the same molecule?
Its GI50 is 7.44 µM.

And the TGI [52]?
The TGI was 16.3 µM.

What about the GI50 [53] of the same molecule?
The GI50 was 3.85 µM.

And the TGI [53]?
The TGI was 13.6 µM.

What about the GI50 [54] of the same molecule?
The GI50 was 3.27 µM.

And the TGI [54]?
The TGI was 29.8 µM.

What about the GI50 [55] of the same molecule?
Its GI50 is 2.11 µM.

And the TGI [55]?
Its TGI is 8.87 µM.

What about the GI50 [56] of the same molecule?
Its GI50 is 0.765 µM.

And the TGI [56]?
The TGI was 27.9 µM.

And the GI50 [57]?
Its GI50 is 1.11 µM.

What about the TGI [57] of the same molecule?
The TGI was 3.33 µM.

And the GI50 [58]?
The GI50 was 6.22 µM.

And the TGI [58]?
Its TGI is over 56 µM.
